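Each compound was tested at five concentrations against cells in 96-well plates for 48 hours. TGI marks complete inhibition of growth.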
What was measured:
Test in all cases: growth of human tumour cells (NCI), 48 h
[1] = tested on: OVCAR-3 ovarian
[2] = tested on: DLD-1 colon
[3] = tested on: HCT-15 colon
[4] = tested on: M19-MEL melanoma
[5] = tested on: SNB-75 CNS
[6] = tested on: UACC-62 melanoma
[7] = tested on: OVCAR-5 ovarian
[8] = tested on: K-562 leukemia
[9] = tested on: CAKI-1 renal
[10] = tested on: HS 578T breast
[11] = tested on: MDA-MB-435

Compound: O[C@H]1[C@H](O)[C@@H](O)CN2CC[C@H](O)[C@H]12
- TGI [1]: > 100 µM
- TGI [2]: > 100 µM
- TGI [3]: > 100 µM
- TGI [4]: > 79.4 µM
- TGI [5]: > 100 µM
- TGI [6]: > 100 µM
- TGI [7]: > 100 µM
- TGI [8]: > 100 µM
- TGI [9]: > 100 µM

Compound: C=C(CN(C)C)C(=O)c1ccc(C(=O)C(=C)CN(C)C)cc1
- TGI [1]: > 100 µM
- TGI [2]: > 100 µM
- TGI [3]: > 100 µM
- TGI [4]: > 100 µM
- TGI [5]: > 100 µM
- TGI [6]: > 100 µM
- TGI [7]: > 100 µM
- TGI [8]: > 100 µM
- TGI [9]: > 100 µM

Compound: Cc1c2c(c(C)n1-c1ccccc1)C(=O)N(CCN1CCN(c3cccc(C(F)(F)F)c3)CC1)C2=O
- TGI [1]: > 100 µM
- TGI [3]: > 100 µM
- TGI [5]: > 100 µM
- TGI [10]: > 100 µM
- TGI [6]: > 100 µM
- TGI [7]: > 100 µM
- TGI [8]: > 100 µM
- TGI [9]: > 100 µM
- TGI [11]: > 100 µM

Compound: O=c1c2c(no[n+]2[O-])c2ccccc2n1-c1ccccc1
- TGI [1]: 19.8 µM
- TGI [3]: 8.76 µM
- TGI [5]: 19.2 µM
- TGI [10]: 39.1 µM
- TGI [6]: 13.7 µM
- TGI [7]: 21.9 µM
- TGI [8]: > 46.4 µM
- TGI [9]: 6.39 µM
- TGI [11]: 14.6 µM

Compound: Cn1c2ccccc2c2c(=S)c3ccccc3ccc21
- TGI [1]: > 100 µM
- TGI [3]: > 100 µM
- TGI [5]: > 100 µM
- TGI [10]: > 100 µM
- TGI [6]: > 100 µM
- TGI [7]: > 100 µM
- TGI [8]: > 100 µM
- TGI [9]: > 100 µM
- TGI [11]: > 100 µM

Compound: O=C(CN1C(=O)CC(c2ccccc2)(c2ccccc2)C1=O)N1CCN(CCO)CC1
- TGI [1]: > 100 µM
- TGI [3]: > 100 µM
- TGI [5]: > 100 µM
- TGI [10]: > 100 µM
- TGI [6]: > 100 µM
- TGI [7]: > 100 µM
- TGI [8]: > 100 µM
- TGI [9]: > 100 µM
- TGI [11]: > 100 µM

Compound: COc1cc(O)c2c(=O)c(OC)c(-c3ccc(OC)c(O)c3)oc2c1
- TGI [1]: > 100 µM
- TGI [3]: > 100 µM
- TGI [5]: > 100 µM
- TGI [10]: > 100 µM
- TGI [6]: > 100 µM
- TGI [7]: > 100 µM
- TGI [8]: > 100 µM
- TGI [9]: 74.4 µM
- TGI [11]: > 100 µM

Compound: CCOC(=O)/C(C(C)=O)=C(\OC(C)=O)c1ccncc1C(=O)O
- TGI [1]: > 100 µM
- TGI [3]: > 100 µM
- TGI [5]: > 100 µM
- TGI [10]: > 100 µM
- TGI [6]: > 100 µM
- TGI [7]: > 100 µM
- TGI [8]: > 100 µM
- TGI [9]: > 100 µM
- TGI [11]: > 100 µM

Compound: CC(C)(C)OC(=O)NC(CSSCC(NC(=O)OC(C)(C)C)C(=O)O)C(=O)O (stereo not drawn)
- TGI [1]: > 100 µM
- TGI [3]: > 100 µM
- TGI [5]: > 100 µM
- TGI [10]: > 100 µM
- TGI [6]: > 100 µM
- TGI [7]: > 100 µM
- TGI [8]: > 100 µM
- TGI [9]: > 100 µM
- TGI [11]: > 100 µM

Compound: COC(=O)c1ccccc1CC1Cc2cccc(C)c2C1=O (stereo not drawn)
- TGI [1]: > 100 µM
- TGI [3]: 73.3 µM
- TGI [5]: 86.8 µM
- TGI [10]: > 100 µM
- TGI [6]: 98.1 µM
- TGI [7]: > 100 µM
- TGI [8]: 68.4 µM
- TGI [9]: > 100 µM
- TGI [11]: 50.8 µM

Compound: O=C(CC(=O)Nc1ccccc1)NNC(Sc1ccccc1)c1cc(N=Nc2ccc(Br)cc2)ccc1O (stereo not drawn)
- TGI [1]: > 10 µM
- TGI [3]: > 10 µM
- TGI [5]: > 10 µM
- TGI [10]: > 10 µM
- TGI [6]: 9.81 µM
- TGI [7]: > 10 µM
- TGI [8]: 6.27 µM
- TGI [9]: > 10 µM
- TGI [11]: > 10 µM

Compound: COc1cc(C2c3cc4c(cc3[C@@H](Nc3ccccc3)C3COC(=O)[C@H]23)OCO4)cc(OC)c1O (stereo partly drawn)
- TGI [1]: 7.34 µM
- TGI [2]: 6.64 µM
- TGI [3]: 2.43 µM
- TGI [4]: 16.6 µM
- TGI [5]: 7.97 µM
- TGI [6]: 2.9 µM
- TGI [7]: > 66.8 µM
- TGI [8]: 9.32 µM
- TGI [9]: 1.68 µM

Compound: O=C1c2cccc3cccc(c23)C(=O)N1CCCNCCCCNCCCNCCCN1C(=O)c2cccc3cccc(c23)C1=O
- TGI [1]: 2.12 µM
- TGI [3]: 28.1 µM
- TGI [5]: 1.46 µM
- TGI [10]: 2.11 µM
- TGI [6]: 1.6 µM
- TGI [7]: 2.76 µM
- TGI [8]: 3.79 µM
- TGI [9]: 17.3 µM
- TGI [11]: 2 µM

Compound: c1ccc(C2=NOC(c3ccccc3)N2C23CC4CC(CC(C4)C2)C3)cc1 (stereo not drawn)
- TGI [1]: > 10 µM
- TGI [3]: > 10 µM
- TGI [5]: > 10 µM
- TGI [10]: > 10 µM
- TGI [6]: > 10 µM
- TGI [7]: > 10 µM
- TGI [8]: > 10 µM
- TGI [9]: > 10 µM
- TGI [11]: > 10 µM

Compound: CSc1nc2c(c(N(C)C)n1)C(O)n1c(nc3ccccc31)S2 (stereo not drawn)
- TGI [1]: > 63.4 µM
- TGI [3]: > 100 µM
- TGI [5]: 74.2 µM
- TGI [10]: > 70.8 µM
- TGI [6]: > 100 µM
- TGI [7]: > 100 µM
- TGI [8]: > 100 µM
- TGI [9]: > 100 µM
- TGI [11]: > 100 µM

Compound: CCOc1c(OC)cc(-c2nc3n(n2)C(=O)C(CC)S3)cc1OC (stereo not drawn)
- TGI [1]: > 10 µM
- TGI [3]: > 10 µM
- TGI [5]: > 10 µM
- TGI [10]: > 10 µM
- TGI [6]: > 10 µM
- TGI [7]: > 10 µM
- TGI [8]: > 10 µM
- TGI [9]: > 10 µM
- TGI [11]: > 10 µM

Compound: Nc1ncc2c(n1)-c1ccccc1OC2N1CCCC1 (stereo not drawn)
- TGI [1]: > 100 µM
- TGI [3]: > 100 µM
- TGI [5]: > 100 µM
- TGI [10]: > 100 µM
- TGI [6]: > 100 µM
- TGI [7]: > 100 µM
- TGI [8]: > 100 µM
- TGI [9]: > 100 µM
- TGI [11]: > 100 µM

Source: PubChem BioAssay (NCI)
